In PMC7730638, “Liposomes Composed by Membrane Lipid Extracts from Macrophage Cell Line as a Delivery of the Trypanocidal N,N’-Squaramide 17 towards Trypanosoma cruzi” (Materials, 2020):
Values joined by “and” are separate entries in the source; they are usually repeats but may differ in a detail not shown here. Equal entries are not always repeated.

How the values were obtained:
[1] = Cytotoxicity in RAW 264.7 macrophages (resazurin); format: cell-based; details: mouse, RAW 264.7 macrophages (ATCC TIB71), 50 μM to 800 μM, read-out: RAW 264.7 Macrophage CC50
Protocol: (§1) VERO (ATCC CCL81) and RAW 264.7 cells (ATCC TIB71) were maintained in RPMI-1640 supplemented with 10% fetal bovine serum (FBS) (Sigma Aldrich, St. Louis, MO, USA) without phenol red at 37 °C and 5% CO2 [14]. […] Trypomastigotes were obtained from monolayers of infected VERO cells grown at 37 °C in an atmosphere with 5% CO2 in RPMI-1640, pH 7.4, supplemented with 10% FBS and 100 μg/mL gentamicin.
(§2) The reference drug benznidazole (BZ) was dissolved in dimethyl sulfoxide (DMSO) at 5% (w/v) at 0.002 M (stock) and the final concentration of DMSO in the experiments never exceeded 0.25% (v/v) to not affect the cell viability. The MLV, MLS, and free S were dispersed or dissolved in deionized water. The final concentration of these treatments in the experiments never exceeded 0.01% (v/v). […] Thereafter, 20 μL of resazurin—(0.39 mM, Sigma Aldrich, St. Louis, MO, USA) was added to each well, followed by incubation for 2 h, and then fluorescence was read on a microplate reader SpectraMax M5 (570 nmex/595 nmem) (Molecular Devices, Sunnyvale, CA, USA). Percentage of cell viability was calculated using the equation below, where A is the arbitrary fluorescence units (AFU) of the treatments, B is AFU culture medium with resazurin and C is AFU of the control group. […]

[2] = Cytotoxicity in VERO cells (resazurin); format: cell-based; details: African green monkey, VERO cells (ATCC CCL81), 50 μM to 800 μM, read-out: VERO Cell CC50
Protocol: as §1, §2

[3] = system: T. cruzi intracellular amastigotes; assay: Trypanocidal activity on intracellular amastigotes in infected VERO cells (counting of stained cells); format: cell-based; details: Trypanosoma cruzi, 6.25 μM to 100 μM, 72 h
Protocol: (§3) VERO (ATCC CCL81) and RAW 264.7 cells (ATCC TIB71) were maintained in RPMI-1640 supplemented with 10% fetal bovine serum (FBS) (Sigma Aldrich, St. Louis, MO, USA) without phenol red at 37 °C and 5% CO2 [14]. […] Trypomastigotes were obtained from monolayers of infected VERO cells grown at 37 °C in an atmosphere with 5% CO2 in RPMI-1640, pH 7.4, supplemented with 10% FBS and 100 μg/mL gentamicin. […] Then, 2.5 × 10^5 epimastigotes/mL were resuspended in 150 μL and added to the microplates. After 48 h, resazurin was added (20 μL/well of resazurin −3 mM), incubated for further 24 h, and fluorescence was recorded as described above. Nanostructures’ effect on amastigotes was accessed in VERO cell line grown in RPMI medium containing 10% FBS and seeded at a density of 1 × 10^4 cells/well in 24-well microplates. […] Cells were fixed and stained with Kit for Fast Staining in Haematology (Figure S2), and the number of amastigotes was determined by counting 200 cells for each experimental group distributed in random microscopic fields. The IC50 values were determined by nonlinear regression in GraphPad Prism version 7.0 (GraphPad Software, San Diego, CA, USA). Selectivity indices (SI) were calculated using the formula: SI = CC50 cytotoxicity in VERO cells/IC50 cytotoxicity in intracellular amastigotes.

[4] = system: T. cruzi (strain CL-Brener) epimastigote; assay: Trypanocidal activity on epimastigotes (resazurin); format: cell-based; details: Trypanosoma cruzi; 6.25 μM to 100 μM, 72 h
Protocol: as §3

[5] = system: Epimastigotes of T. cruzi; assay: Ultrastructural changes in epimastigotes (SEM); format: cell-based, Trypanosoma cruzi; details: half of IC50 (BZ 7.91 µM, S 6.56 µM), 72 h
Protocol: Epimastigotes of T. cruzi were grown at a density of 5 × 10^5 cells/mL in RPMI culture medium containing the compounds tested at concentrations of 7.91 µM (BZ), 6.56 µM (S), and 7.93 µM (MLS) corresponding to the half of IC50 of each compound. After 72 h these cultures were centrifuged at 1600× g for 10 min. Parasites were washed in PBS and fixed for 1 h at room temperature with 2% formaldehyde and 2.5% glutaraldehyde in sodium cacodylate buffer (0.1 M, pH 7.2). Samples were then washed in 0.1 M cacodylate buffer and adhered to coverslips previously coated with poly-L-lysine (Sigma Aldrich, St. Louis, MO, USA). After adhesion, post-fixation was performed using a solution of 1% OsO4 containing 0.8% potassium ferrocyanide (K4Fe (CN)6). Then, parasites were dehydrated in increasing concentrations of acetone (30%, 50%, 70%, 90%, and 100%), subject to critical-point drying, metalized with gold, and observed in a scanning electron microscope (SEM)- (JEOL JSM-7000F, Tokyo, Japan). Sample images were visualized using a 15 kV beam voltage.

[6] = Entrapment efficiency (filtration, absorbance at 320 nm); format: physicochemical; details: for Entrapment efficiency: mean of triplicate, 320 nm
Protocol: The MLS nanostructures were evaluated in terms of drug entrapment efficiency (EE), established as a ratio between the encapsulation (ED) over the initial quantity of the drug (ID), according to the Equation (1) below: (1) EE %=ED mg/ID mg×100 For the determination of EE, the S-loaded nanostructures were filtrated in 100 kDa Amicon filters (Amicon® Ultra 0.5 mL centrifuge filters - Millipore, Darmstadt, Germany) at 300× g for 10 min, 4 °C [17]. Unentrapped drug (filtered content) was collected and the absorbance was measured at 320 nm using a biophotometer (Eppendorf BioPhotometer® 6131, Hamburg, Germany) (Figure S1). […] Experiments were performed in triplicates.

[7] = cited from earlier work
Trypanosoma cruzi = system: Trypanosoma cruzi; set-up: method as in PMID 24410674; details: acute phase, mice, after 40 days of treatment, compared to control; cited from earlier work

| Entrapment efficiency [6] | Entrapment efficiency ([6]; listed as N, N’-Squaramide 17) | Entrapment efficiency, single replicates ([6]; replicates 1-3, 320 nm, listed as N, N’-Squaramide 17) | SMILES | CC50 at 72 h [1] | CC50 at 72 h [2] | IC50 [3] | IC50 [4] | Morphological alterations in epimastigotes [5] | Partition coefficient log P [7] | Reduction of parasitemia (Trypanosoma cruzi) |
| --- | --- | --- | --- | --- | --- | --- | --- | --- | --- | --- |
| – | – | – | O=C(Cn1ccnc1[N+](=O)[O-])NCc1ccccc1 [BZ, benznidazole, reference compound] | 0.5548 ± 0.0049 mM | 284.4 ± 1.25 µM | 4.76 ± 4.45 µM | 15.8 ± 4.63 µM | prominences in the cell body and distortion in the flagellum | – | – |
| 73.35% ± 2.05% | 73.35% | 75.71% and 72.07% and 72.35% | CCCCNc1c(N(C)CCCN(C)C)c(=O)c1=O [S, N, N’-Squaramide 17] | 1.654 ± 0.0052 mM | 736.2 ± 1.23 µM | 51.2 ± 4.91 µM | 13.1 ± 5.12 µM | a protuberance on the cell | 0.59 | 67% |
